Data: patent US20230322789A1, “PYRAZOLOPYRIDAZINONE COMPOUND, AND PHARMACEUTICAL COMPOSITION AND USE THEREOF” (BroadenBio Co., Ltd., priority 2020, published 2023)
pIC50: −log10 of the molar value. Structures can show the parent of a compound that is named as a salt.

Key:
[1] = biological target: HPK1 (Homo sapiens (Human), UniProt Q92918); assay: HPK1 kinase activity inhibition test (ADP-Glo, luminescence); format: biochemical; conditions: HPK1 5 nM, ATP 2 μM, read-out: IC50, inhibitory effects of compounds on HPK1 kinase activity
In short: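 HPK1 autophosphorylation was run without added substrate. Kinase and compound were preincubated 10 min at 25° C., then ATP was added for 60 min at 25° C. ADP formed was detected by ADP-Glo luminescence, and IC50 was taken from a four-parameter nonlinear fit.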

[2] = tested on: Human Jurkat-E6-1 cells; assay: Measurement of IL-2 secretion of Jurkat cells by ELISA; format: cell-based; conditions: Homo sapiens, Jurkat E6.1, anti-CD3/anti-CD28 stimulation 24 hours, read-out: Percentage of the amount of IL-2 secreted from compound treated/DMSO-treated cells; for activity at 3 µM: test compound 3.0 μM
In short: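 Jurkat-E6-1 cells pre-incubated with compound for 30 min at 37° C, then stimulated 24 h with plate-bound anti-CD3 plus soluble anti-CD28. Secreted IL-2 in medium quantified by sandwich ELISA against a standard curve; expressed as percent of DMSO-treated cells.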

HPK1, sequence (Q92918 whole entry): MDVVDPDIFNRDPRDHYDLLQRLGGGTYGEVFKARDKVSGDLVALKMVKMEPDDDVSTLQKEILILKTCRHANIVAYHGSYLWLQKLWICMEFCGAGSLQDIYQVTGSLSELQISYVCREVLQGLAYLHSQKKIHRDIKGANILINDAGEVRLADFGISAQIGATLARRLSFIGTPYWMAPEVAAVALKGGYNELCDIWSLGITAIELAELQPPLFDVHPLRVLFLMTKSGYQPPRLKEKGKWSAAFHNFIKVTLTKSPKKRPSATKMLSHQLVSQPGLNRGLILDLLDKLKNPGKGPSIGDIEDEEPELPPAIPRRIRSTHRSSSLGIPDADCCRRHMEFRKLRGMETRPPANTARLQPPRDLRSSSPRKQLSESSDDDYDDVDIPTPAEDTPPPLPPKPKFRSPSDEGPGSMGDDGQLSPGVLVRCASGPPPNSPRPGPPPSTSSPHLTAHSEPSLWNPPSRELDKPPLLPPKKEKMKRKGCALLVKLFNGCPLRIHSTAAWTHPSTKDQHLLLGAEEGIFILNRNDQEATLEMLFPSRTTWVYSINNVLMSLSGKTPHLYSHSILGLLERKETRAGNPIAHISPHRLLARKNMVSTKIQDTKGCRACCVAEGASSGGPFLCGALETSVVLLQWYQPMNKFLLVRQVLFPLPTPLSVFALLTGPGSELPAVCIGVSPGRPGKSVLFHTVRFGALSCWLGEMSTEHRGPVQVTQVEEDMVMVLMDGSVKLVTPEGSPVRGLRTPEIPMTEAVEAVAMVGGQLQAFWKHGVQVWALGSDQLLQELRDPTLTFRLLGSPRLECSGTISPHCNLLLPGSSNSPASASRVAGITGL

Row | pIC50 [1] | SMILES | activity at 3 µM [2] [%] | activity at 1 µM ([2]; test compound 1.0 μM) [%] | activity at 0.33 µM ([2]; test compound 0.33 μM) [%]
1 | ≥ 7.30 | Cc1cccc(F)c1-n1nc2c(-c3ccc(N4CCN(C)CC4CO)cc3)n[nH]c2cc1=O (stereo not drawn) [Compound 130, 5-(2-fluoro-6-methylphenyl)-3-(4-(2-(hydroxymethyl)-4-methylpiperazin-1-yl)phenyl)-1H-pyrazolo[4,3-c]pyridazin-6(5H)-one] | 454 | – | –
2 | 6.30 to 7.30 | COc1cccc(F)c1-n1nc2c(-c3ccc(N4CCOCC4)cc3)n[nH]c2c(C)c1=O [Compound 155, 5-(2-fluoro-6-methoxyphenyl)-7-methyl-3-(4-morpholinophenyl)-1H-pyrazolo[4,3-c]pyridazin-6(5H)-one] | 435 | – | –
3 | ≥ 7.30 | COc1cccc(F)c1-n1nc2c(-c3ccc(N4CCC(C)(N)CC4)cc3)n[nH]c2cc1=O [Compound 146, 3-(4-(4-amino-4-methylpiperidin-1-yl)phenyl)-5-(2-fluoro-6-methoxyphenyl)-1H-pyrazolo[4,3-c]pyridazin-6(5H)-one] | 537 | – | –
4 | ≥ 7.30 | Cc1cccc(F)c1-n1nc2c(-c3ccc(N4CCN5CCOC[C@@H]5C4)cc3)n[nH]c2cc1=O [Compound 133, (S)-5-(2-fluoro-6-methylphenyl)-3-(4-(hexahydropyrazino[2,1-c][1,4]oxazin-8(1H)-yl)phenyl)-1H-pyrazolo[4,3-c]pyridazin-6(5H)-one] | 800 | – | –

Second part, the compound before the results:

Row | SMILES | pIC50 [1] | activity at 3 µM [2] [%] | activity at 1 µM ([2]; test compound 1.0 μM) [%] | activity at 0.33 µM ([2]; test compound 0.33 μM) [%]
5 | Cc1cccc(F)c1-n1nc2c(-c3ccc(N4CCN(C)C(C(C)(C)O)C4)cc3)n[nH]c2cc1=O (stereo not drawn) [Compound 125, 5-(2-fluoro-6-methylphenyl)-3-(4-(3-(2-hydroxylprop-2-yl)-4-methylpiperazin-1-yl)phenyl)-1H-pyrazolo[4,3-c]pyridazin-6(5H)-one] | ≥ 7.30 | 216 | – | –
6 | CCc1cccc(F)c1-n1nc2c(-c3ccc(N4CCN(C)CC4)nc3)n[nH]c2cc1=O [Compound 98, 5-(2-ethyl-6-fluorophenyl)-3-(6-(4-methylpiperazin-1-yl)pyrid-3-yl)-1H-pyrazolo[4,3-c]pyridazin-6(5H)-one] | ≥ 7.30 | 850 | – | –
7 | Cc1cccc(F)c1-n1nc2c(-c3ccc(N4CC5CCC(C4)N5C)nc3)n[nH]c2cc1=O [Compound 109, 5-(2-fluoro-6-methylphenyl)-3-(6-(8-methyl-3,8-diazabicyclo[3.2.1]octan-3-yl)pyrid-3-yl)-1H-pyrazolo[4,3-c]pyridazin-6(5H)-one] | ≥ 7.30 | 491 | – | –
8 | Cc1cccc(F)c1-n1nc2c(-c3ccc(N4CCN(C)C(C)(C)C4)cc3)n[nH]c2cc1=O [Compound 89, 5-(2-fluoro-6-methylphenyl)-3-(4-(3,3,4-trimethylpiperazin-1-yl)phenyl)-1H-pyrazolo[4,3-c]pyridazin-6(5H)-one] | ≥ 7.30 | 689 | – | –
9 | COc1cccc(F)c1-n1nc2c(-c3cnc(N4CCN(C)CC4)nc3)n[nH]c2cc1=O [Compound 28, 5-(2-fluoro-6-methoxyphenyl)-3-(2-(4-methylpiperazin-1-yl)pyrimidin-5-yl)-1H-pyrazolo[4,3-c]pyridazin-6(5H)-one] | ≥ 7.30 | – | 302 | –
10 | CN1CCN(c2ccc(-c3n[nH]c4cc(=O)n(-c5c(O)cccc5F)nc34)cn2)CC1 [Compound 100, 5-(2-fluoro-6-hydroxylphenyl)-3-(6-(4-methylpiperazin-1-yl)pyrid-3-yl)-1H-pyrazolo[4,3-c]pyridazin-6(5H)-one hydrobromide] | 6.30 to 7.30 | 284 | – | –
11 | COc1cccc(F)c1-n1nc2c(-c3ccc(N4CCN(C)CC4)cc3)n[nH]c2cc1=O [Compound 9, 5-(2-fluoro-6-methoxyphenyl)-3-(4-(4-methylpiperazin-1-yl)phenyl)-1H-pyrazolo[4,3-c]pyridazin-6(5H)-one] | ≥ 7.30 | 188 | – | –
12 | COc1cccc(F)c1-n1nc2c(-c3ccc(C4=CCN(C)CC4)cc3)n[nH]c2cc1=O [Compound 23, 5-(2-fluoro-6-methoxyphenyl)-3-(4-(1-methyl-1,2,3,6-tetrahydro-pyridin-4-yl)phenyl)-1H-pyrazolo[4,3-c]pyridazin-6(5H)-one] | ≥ 7.30 | – | – | 379
